Our source for the IC50 and melting point values is patent US20120220577A1, “GLYCINE B ANTAGONISTS” (Merz Pharma GmbH & Co KgaA, priority 2009, published 2012).

Structures are written as SMILES. Where a name gives a salt, the structure may show the parent alone. Where only a bound is given, the exact number is not on record here.

For data set [1], the target named is T1, glycine binding pocket of the NMDA receptor (Rattus norvegicus, UniProt P35439).
T1 construct: For isolation of the cell membranes, the cortices are homogenized; from tissue; host or cells: rat cerebral cortex membranes (male Sprague-Dawley)
Description: [3H]MDL-105,519 displacement studies (rat cortical membranes). The following applies: displacement of 2 nM [3H]-MDL-105,519, rat cortical membranes; read-out: NMDA-MDL 105519-r-CTX - IC50.

In data set [2] the target is NMDA receptor glycine B site (Rattus norvegicus, UniProt P35439). Description: Calcium FLIPR studies, rat cortical neurons (NMDA/D-Serine induced intracellular calcium). Type of data set: cell-based. Also on record: Primary neurons are prepared from cortices of embryonal rats at day 17 of pregnancy; endogenous in cells; host or cells: primary rat cortical neurons (E17, 11-13 DIV). The settings on record: rat cortical neurons; stimulation with 30 μM NMDA and 1 μM D-Serine; antagonist pre-incubated 10 min; read-out: NMDA-FLIPR-rCTX-NAM - IC50. The method, then: Antagonistic potencies of the test compounds are functionally evaluated using electrophysiological whole cell patch-clamp recordings and/or fluorometric intracellular Ca^2+-imaging (FLIPR) screens.
Sprague-Dawley rat embryos (E 17) are decapitated and neocortices are dissected, trypsinized and carefully triturated. The cell suspension is plated on poly-D-lysine pre-coated 96-well Plates (Greiner, Frickenhausen, Germany) at a cell density of 55.000 cells/well. The neurons are cultivated in Neurobasal media containing B27-Supplement and […] L-Glutamine (Biochrom) at 37° C. in a humidified atmosphere of 5% CO2/95% air. Medium is exchanged completely at day 4 and to 50% on day 7. At the time of experiments neurons are 11-13 days in vitro.
The increase of intracellular calcium after stimulation with 30 μM NMDA and 1 μM D-Serine is measured using the fluorometric imaging plate reader (FLIPR) and the Calcium-4-Kit (both Molecular Devices, Ismaning, Germany). Prior to addition of agonist or antagonist (5 different concentrations, n=5) the medium is aspirated and cells are washed once before loading with 150 μL of loading buffer (1 h at room temperature), consisting of Ca-4 sensitive dye reconstituted in extracellular bath solution, pH 7.3. Subsequently, plates are transferred to FLIPR to detect increases in intracellular calcium after the addition of agonist, measured as relative fluorescence units (RFU). Antagonists are pre-incubated with the cells for 10 min at room temperature before the addition of the agonist and co-agonist.
The fluorescence signal increase after addition of agonist reflects the increase of intracellular calcium. Inconsistencies in the amount of cells per well are normalised by using the spatial uniformity correction of the FLIPR software (Screenworks, Molecular Devices). The mean of replicated temporal data (n=5) is calculated and used for graphical representation. For the evaluation of the antagonistic potency, the calcium changes in response to different concentrations of antagonist are determined using an area under the curve (AUC) calculation. All responses (RFU-values) are determined as percentage of control (=maximum response at 30 μM NMDA and 1 μM D-Serine). IC50 values are calculated according the four parameter logistic equation using GraFit (Erithacus Software).

With `O=C(O)CCc1cccc(NC(=O)COc2cc(C(=O)O)cc3cc(Cl)cc(Cl)c23)c1` [Example 96, 4-{[3-(2-Carboxy-ethyl)-phenylcarbamoyl]-methoxy}-5,7-dichloro-naphthalene-2-carboxylic acid], the melting point was > 230 °C (dec.). The IC50 in data set [1] came to 393 nM. In addition, in data set [2], the IC50 came out at 5820 nM.

As to `O=C(COc1cc(C(=O)O)cc2cc(Cl)cc(Cl)c12)NCc1ccccn1` [Example 103, 5,7-Dichloro-4-{[(pyridin-2-ylmethyl)-carbamoyl]-methoxy}-naphthalene-2-carboxylic acid], the melting point was > 240 °C (dec.). Besides, in data set [1], the IC50 worked out at 430 nM. Also, the IC50 in data set [2] was determined as 8550 nM.

With `O=C(O)COc1ccc(CO)cc1NC(=O)COc1cc(C(=O)O)cc2cc(Cl)cc(Cl)c12` [Example 94, 4-[(2-Carboxymethoxy-5-hydroxymethyl-phenylcarbamoyl)-methoxy]-5,7-dichloro-naphthalene-2-carboxylic acid], the melting point was 185 to 187 °C (dec.). In addition, the half-maximal inhibitory concentration (IC50) in data set [1] stood at 150 nM. In data set [2], the half-maximal inhibitory concentration (IC50) was found to be 1050 nM.

`O=C(COc1cc(C(=O)O)cc2cc(Cl)cc(Cl)c12)NCc1cccc(Cc2nnn[nH]2)c1` [Example 119, 5,7-Dichloro-4-{[3-(1H-tetrazol-5-ylmethyl)-benzylcarbamoyl]-methoxy}-naphthalene-2-carboxylic acid] had a melting point of 243 to 244 °C.

`O=C(COc1cc(C(=O)O)cc2cc(Cl)cc(Cl)c12)Nc1ccccc1-c1nnn[nH]1` [Example 85, 5,7-Dichloro-4-{[2-(1H-tetrazol-5-yl)-phenylcarbamoyl]-methoxy}-naphthalene-2-carboxylic acid] showed a melting point of 247 to 248 °C. In addition, the IC50 in data set [1] is 233 nM. Moreover, the IC50 in data set [2] is 930 nM.

With `O=C(O)COc1ccc(NC(=O)COc2cc(C(=O)O)cc3cc(Cl)cc(Cl)c23)c(OCC(=O)O)c1` [Example 83, 4-[(2,4-Bis-carboxymethoxy-phenylcarbamoyl)-methoxy]-5,7-dichloro-naphthalene-2-carboxylic acid], the melting point is > 220 °C (dec.). Moreover, the IC50 in data set [1] is 252 nM. Moreover, the IC50 in data set [2] turned out to be 1320 nM.

In the case of `N#Cc1ccccc1NC(=O)COc1cc(C(=O)O)cc2cc(Cl)cc(Cl)c12` [Example 82, 5,7-Dichloro-4-[(2-cyano-phenylcarbamoyl)-methoxy]-naphthalene-2-carboxylic acid], the melting point was more than 250 °C. Also, the half-inhibitory concentration (IC50) in data set [1] was found to be 440 nM.

The compound `CNC(=O)COc1cc(CN)ccc1NC(=O)COc1cc(C(=O)O)cc2cc(Cl)cc(Cl)c12` (as salt: hydrochloride) [Example 116, 4-[(4-Aminomethyl-2-methylcarbamoylmethoxy-phenylcarbamoyl)-methoxy]-5,7-dichloro-naphthalene-2-carboxylic acid] yielded a melting point of 233 to 235 °C.

Consider `Cc1cnc(NC(=O)COc2cc(C(=O)O)cc3cc(Cl)cc(Cl)c23)s1` [Example 133, 5,7-Dichloro-4-[(5-methyl-thiazol-2-ylcarbamoyl)-methoxy]-naphthalene-2-carboxylic acid], for which the melting point was more than 250 °C.

On to `N#CCc1ccccc1NC(=O)COc1cc(C(=O)O)cc2cc(Cl)cc(Cl)c12` [Example 137, 5,7-Dichloro-4-[(2-cyanomethyl-phenylcarbamoyl)-methoxy]-naphthalene-2-carboxylic acid], for which the melting point fell in the range of 246 to 247 °C.

For `NC(=O)c1cccc(NC(=O)COc2cc(C(=O)O)cc3cc(Cl)cc(Cl)c23)c1` [Example 113, 4-[(3-Carbamoyl-phenylcarbamoyl)-methoxy]-5,7-dichloro-naphthalene-2-carboxylic acid], the melting point was more than 250 °C. In addition, in data set [1], the IC50 amounted to 284 nM.

Take `NCc1cc(OCC(=O)O)ccc1NC(=O)COc1cc(C(=O)O)cc2cc(Cl)cc(Cl)c12` (as salt: trifluoroacetate) [Example 97, 4-[(2-Aminomethyl-4-carboxymethoxy-phenylcarbamoyl)-methoxy]-5,7-dichloro-naphthalene-2-carboxylic acid]: the melting point was more than 169 °C.

`O=C(O)COc1cc(CO)ccc1NC(=O)COc1cc(C(=O)O)cc2cc(Cl)cc(Cl)c12` [Example 122, 4-[(2-Carboxymethoxy-4-hydroxymethyl-phenylcarbamoyl)-methoxy]-5,7-dichloro-naphthalene-2-carboxylic acid] had a melting point of 244 to 245 °C.

For the compound `O=C(COc1cc(C(=O)O)cc2cc(Cl)cc(Cl)c12)Nc1cccc(OCc2nnn[nH]2)c1OCc1nnn[nH]1` [Example 128, 4-{[2,3-Bis-(1H-tetrazol-5-ylmethoxy)-phenylcarbamoyl]-methoxy}-5,7-dichloro-naphthalene-2-carboxylic acid], the melting point is 246 to 247 °C. Further, in data set [1], the IC50 was 1370 nM.

The compound `Cc1nc(NC(=O)COc2cc(C(=O)O)cc3cc(Cl)cc(Cl)c23)sc1C` [Example 135, 5,7-Dichloro-4-[(4,5-dimethyl-thiazol-2-ylcarbamoyl)-methoxy]-naphthalene-2-carboxylic acid] had a melting point of more than 250 °C.
